The values below come from patent US8748433B2, “β3 adrenergic receptor agonists” (Merck Sharp & Dohme Corp., priority 2010, dated 2014).

Experiment [1] has as its target T1, human β3 adrenergic receptor (Homo sapiens, UniProt P13945).
T1 construct: expressed in transfected cells; host or cells: CHO cells, stably transfected
Description: Functional assay: cAMP production in CHO cells stably transfected with cloned β3-adrenergic receptor (LANCE TR-FRET). The format is cell-based. How it is done: cAMP production in response to ligand is measured according to Barton, et al. (1991, Agonist-induced desensitization of D2 dopamine receptors in human Y-79 retinoblastoma cells. Mal. Pharmacol. v3229:650-658) modified as follows. cAMP production is measured using a homogenous time-resolved fluorescence resonance energy transfer immunoassay (LANCE™, Perkin Elmer) according to the manufacture's instructions. Chinese hamster ovary (CHO) cells, stably transfected with the cloned β-adrenergic receptor (β1, β2 or β3) are harvested after 3 days of subculturing. Harvesting of cells is done with Enzyme-free Dissociation. Media (Specialty Media). Cells are then counted and resuspended in assay buffer (Hank's Balanced salt solution supplemented with 5 mM HEPES, 0.1% BSA) containing a phosphodiesterase inhibitor (IBMX, 0.6 mM). The reaction is initiated by mixing 6,000 cells in 6 μL with 6 μL Alexa Fluor labeled cAMP antibody (LANCE™ kit) which is then added to an assay well containing 12 μL of compound (diluted in assay buffer to 2× final concentration). The reaction proceeds for 30 min at room temperature and is terminated by the addition of 24 μL detection buffer (LANCE™ kit). The assay plate is then incubated for 1 h at room temperature and time-resolved fluorescence measured on a Perkin Elmer Envision reader or equivalent. The unknown cAMP level is determined by comparing fluorescence levels to a cAMP standard curve.
The non-selective, full agonist β-adrenergic ligand isoproterenol is used at all three receptors to determine maximal stimulation. The human β3 adrenergic receptor (AR) selective ligand (S)—N-[4-[2-[[2-hydroxy-3-(4-hydroxyphenoxy)propyl]amino]ethyl]-phenyl]-4-iodobenzenesulfonamide is used as a control in all assays. Isoproterenol is titrated at a final concentration in the assay of 10^-10 M to 10-5 and the selective ligand (S)—N-[4-[2-[[2-hydroxy-3-(4-hydroxyphenoxy)propyl]amino]ethyl]phenyl]-4-iodobenzenesulfonamide is titrated at the β3 receptor at concentration of 10^-10 M to 10^-5 M. Unknown ligands are titrated at all 3β-adrenergic receptor subtypes at a final concentration in the assay of 10^-10 M to 10^-5 M to determine the EC50. The EC50 is defined as the concentration of compound that gives 50% activation of its own maximum. Data are analyzed using Microsoft Excel and Graphpad Prism or an internally developed data analysis software package.
In general terms: cAMP levels reflect the balance of adenylyl cyclase and phosphodiesterase activity.

A further experiment addresses T2, β3AR (Rattus norvegicus, UniProt P26255).
T2 construct: host or cells: live rats (in vivo, bladder)
To be noted: rats, intravenous administration, cited from earlier work.

Setting [2] is: Table 1, read-out: Human β3 agonist functional activity.
[3] abbreviates: Table 2, read-out: Human β3 agonist functional activity.
Where [4] appears, read: Table 3, read-out: Human β3 agonist functional activity.

Where two headings read alike, the source gives them in different places.

T2 sequence (P26255 whole entry): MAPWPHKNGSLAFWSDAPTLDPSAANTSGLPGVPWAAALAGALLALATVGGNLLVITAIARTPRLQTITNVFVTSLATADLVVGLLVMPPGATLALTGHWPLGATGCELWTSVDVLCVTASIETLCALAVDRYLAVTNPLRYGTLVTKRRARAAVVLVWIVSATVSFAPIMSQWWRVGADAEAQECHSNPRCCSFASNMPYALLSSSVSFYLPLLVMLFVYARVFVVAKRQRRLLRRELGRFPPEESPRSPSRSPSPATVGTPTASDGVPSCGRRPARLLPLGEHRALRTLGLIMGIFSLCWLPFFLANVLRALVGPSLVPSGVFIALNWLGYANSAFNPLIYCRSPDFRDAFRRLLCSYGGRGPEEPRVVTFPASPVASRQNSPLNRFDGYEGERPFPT
T1 sequence (P13945 whole entry): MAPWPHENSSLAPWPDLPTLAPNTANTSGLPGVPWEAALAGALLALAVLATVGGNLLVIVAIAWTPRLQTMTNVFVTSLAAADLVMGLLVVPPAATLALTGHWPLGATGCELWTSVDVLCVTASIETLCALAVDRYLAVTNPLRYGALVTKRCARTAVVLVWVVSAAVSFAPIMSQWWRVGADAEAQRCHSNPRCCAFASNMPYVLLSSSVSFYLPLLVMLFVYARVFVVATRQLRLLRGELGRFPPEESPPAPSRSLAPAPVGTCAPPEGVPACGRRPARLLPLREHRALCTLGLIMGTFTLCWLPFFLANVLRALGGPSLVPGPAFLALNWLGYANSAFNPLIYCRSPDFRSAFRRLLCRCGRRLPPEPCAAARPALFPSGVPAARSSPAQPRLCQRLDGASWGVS

`O[C@H](c1ccccc1)[C@H]1CC[C@@H](Cc2ccc3nc(CCn4ncc5ccccc54)[nH]c3c2)N1` [Example 7]: the EC50 in experiment [1] (setting [2]) is 11 to 100 nM.
Turning to `OC(c1ccccc1)C1CCC(Cc2ccc3nc(CCc4cnn(-c5ccccc5)c4)[nH]c3c2)N1` (centres unmarked) [Example 11], the EC50 in experiment [1] (setting [2]) is 101 to 1000 nM.
`C[C@H](Cc1ccc2c(c1)OC(C(=O)[O-])(C(=O)[O-])O2)NC[C@H](O)c1cccc(Cl)c1.[Na+].[Na+]` [CL316243]: on β3AR (cystometric studies), the bladder capacity result is on record as “increases bladder capacity”, the micturition interval result was “prolongation of micturition interval” and the residual urine volume entry was “without increasing residual urine volume”. For the same compound, the bladder pressure result at β3AR is reported as “reduces bladder pressure”.
With `O=C(O)c1ccccc1-c1nc2ccc(C[C@@H]3CC[C@H]([C@H](O)c4cccnc4)N3)cc2[nH]1` [Example 35], the EC50 in experiment [1] (setting [2]) lay in the range of 101 to 1000 nM.
Still for that read-out and setting: under `Cc1cc2ncn(CCc3nc4ccc(C[C@@H]5CC[C@H]([C@H](O)c6ccccc6)N5)cc4[nH]3)c2cc1C` [Example 14] stands 101 to 1000 nM.
On to `C[C@@H](c1nc2ccc(CC3CC[C@H]([C@H](O)c4ccccc4)N3)cc2[nH]1)n1cccnc1=O` (stereo partly drawn) [Example 1, 1-{(1S)-[6-({(2S,5R)-5-[(R)-Hydroxy(phenyl)methyl]pyrrolidin-2-yl}methyl)-1H-benzimidazol-2-yl]ethyl}pyrimidin-2(1H)-one], for which, in experiment [1] (setting [2]), the EC50 lay within 11 to 100 nM.
As for `CC(c1cscn1)c1nc2ccc(C[C@@H]3CC[C@H]([C@H](O)c4cccnc4)N3)cc2[nH]1` (some centres unmarked) [Example 27], the EC50 in experiment [1] (setting [2]) lay in the range of 101 to 1000 nM.
On to `OC(c1cccnc1)C1CCC(Cc2ccc3nc(C4CCc5scnc54)[nH]c3c2)N1` (centres unmarked) [Example 26], for which, in experiment [1] (setting [2]), the EC50 was 101 to 1000 nM.
Still for that read-out and setting: to `O[C@H](c1ccccc1)[C@H]1CC[C@@H](Cc2ccc3nc(CCn4cncn4)[nH]c3c2)N1` [Example 15] belongs 101 to 1000 nM; to `CS(=O)(=O)c1ccccc1-c1nc2ccc(C[C@@H]3CC[C@H]([C@H](O)c4cccnc4)N3)cc2[nH]1` [Example 32], 11 to 100 nM.
As for `O=c1ccncn1Cc1nc2ccc(C[C@@H]3CC[C@H]([C@H](O)c4ccccc4)N3)cc2[nH]1` [Example 19], the EC50 in experiment [1] (setting [2]) is 101 to 1000 nM.
`Cc1nc2c(s1)CCC2c1nc2ccc(C[C@@H]3CC[C@H]([C@H](O)c4ccccc4)N3)cc2n1C` (single isomer, unassigned) [Example 44]: the EC50 in experiment [1] (setting [3]) lay within 1000 to 3000 nM.
Take `O=C1c2ccccc2C(=O)N1Cc1nc2ccc(C[C@@H]3CC[C@H]([C@H](O)c4cccnc4)N3)cc2[nH]1` [Example 31]: the EC50 in experiment [1] (setting [2]) was 101 to 1000 nM.
Take `Cc1nc2c(s1)CCC2c1nc2ccc(C[C@@H]3CC[C@H]([C@H](O)c4ccccc4)N3)cc2n1C` (single isomer, unassigned) [Example 43]: in experiment [1] (setting [3]), the EC50 is 1000 to 3000 nM.
`CS(=O)(=O)c1cccc(-c2nc3ccc(C[C@@H]4CC[C@H]([C@H](O)c5cccnc5)N4)cc3[nH]2)c1` [Example 34]: the EC50 in experiment [1] (setting [2]) lay within 11 to 100 nM.
For `Cc1nc2c(s1)CCC2c1nc2cc(C[C@@H]3CC[C@H]([C@H](O)c4ccccc4)N3)ccc2n1C` (single isomer, unassigned) [Example 46], the EC50 in experiment [1] (setting [4]) was 1000 to 3000 nM.
As for `O[C@H](c1ccccc1)[C@H]1CC[C@@H](Cc2ccc3nc(CCn4ccnc4-c4ccccc4)[nH]c3c2)N1` [Example 10], the EC50 in experiment [1] (setting [2]) fell in the range of 101 to 1000 nM.
Turning to `Cc1nc2c(s1)CCC2c1nc2cc(C[C@@H]3CC[C@H]([C@H](O)c4ccccc4)N3)ccc2n1C` (single isomer, unassigned) [Example 45], the EC50 in experiment [1] (setting [4]) lay within 101 to 1000 nM.
For `OC(c1ccccc1)C1CCC(Cc2ccc3nc(CCn4cnc5ccccc54)[nH]c3c2)N1` (centres unmarked) [Example 13], the EC50 in experiment [1] (setting [2]) was 101 to 1000 nM.
Still for that read-out and setting: under `CCc1nc2ccccc2n1CCc1nc2ccc(C[C@@H]3CC[C@H]([C@H](O)c4ccccc4)N3)cc2[nH]1` [Example 5] stands 101 to 1000 nM.
The same measure, in the same setting: to `OC(c1ccccc1)C1CCC(Cc2ccc3nc(CCCn4cccn4)[nH]c3c2)N1` (centres unmarked) [Example 6] belongs 101 to 1000 nM; to `O=C1c2ccccc2C(=O)N1Cc1nc2ccc(C[C@@H]3CC[C@H]([C@H](O)c4ccccc4)N3)cc2[nH]1` [Example 17], 101 to 1000 nM.
Still for that read-out and setting: to `CS(=O)(=O)c1ccc(-c2nc3ccc(C[C@@H]4CC[C@H]([C@H](O)c5cccnc5)N4)cc3[nH]2)cc1` [Example 33] belongs 101 to 1000 nM; to `Cc1nc2c(s1)CCC2c1nc2ccc(C[C@@H]3CC[C@H]([C@H](O)c4ccccc4)N3)cc2[nH]1` (some centres unmarked) [Example 21], 11 to 100 nM; to `C[C@@H](c1nc2ccc(C[C@@H]3CC[C@H]([C@H](O)c4cccnc4)N3)cc2[nH]1)n1cccnc1=O` [Example 28], 101 to 1000 nM.
Take `O[C@H](c1cccnc1)[C@H]1CC[C@@H](Cc2ccc3nc(C4CCc5ccnn54)[nH]c3c2)N1` (some centres unmarked) [Example 42]: in experiment [1] (setting [2]), the EC50 was in the range of 101 to 1000 nM.
For the compound `Cc1nc(Cc2nc3ccc(C[C@@H]4CC[C@H]([C@H](O)c5ccccc5)N4)cc3[nH]2)c(C)s1` [Example 20], in experiment [1] (setting [2]), the EC50 is 101 to 1000 nM.
Still for that read-out and setting: under `O=C(O)c1cccc(-c2nc3ccc(C[C@@H]4CC[C@H]([C@H](O)c5cccnc5)N4)cc3[nH]2)c1` [Example 36] stands 101 to 1000 nM; under `O[C@H](c1cccnc1)[C@H]1CC[C@@H](Cc2ccc3nc(-c4c(F)cccc4F)[nH]c3c2)N1` [Example 38], 101 to 1000 nM; under `O[C@H](c1ccccc1)[C@H]1CC[C@@H](Cc2ccc3nc(C4CCc5ccnn54)[nH]c3c2)N1` (some centres unmarked) [Example 16], 101 to 1000 nM.
As for `Cc1nn(-c2ccccc2)c(C)c1CCc1nc2ccc(C[C@@H]3CC[C@H]([C@H](O)c4ccccc4)N3)cc2[nH]1` [Example 12], in experiment [1] (setting [2]), the EC50 is 101 to 1000 nM.
With `Cc1nc2c(s1)CCC2c1nc2ccc(C[C@@H]3CC[C@H]([C@H](O)c4cccnc4)N3)cc2[nH]1` (some centres unmarked) [Example 29], the EC50 in experiment [1] (setting [2]) was in the range of 101 to 1000 nM.
For `Oc1cccc(-c2nc3ccc(C[C@@H]4CC[C@H]([C@H](O)c5cccnc5)N4)cc3[nH]2)n1` [Example 40], the EC50 in experiment [1] (setting [2]) lay in the range of 1000 to 3000 nM.
On to `Cc1nc(Cc2nc3ccc(C[C@@H]4CC[C@H]([C@H](O)c5ccccc5)N4)cc3[nH]2)cs1` [Example 8], for which the EC50 in experiment [1] (setting [2]) is 101 to 1000 nM.
Same read-out and setting: under `O=C(O)c1ccc(-c2nc3ccc(C[C@@H]4CC[C@H]([C@H](O)c5cccnc5)N4)cc3[nH]2)cc1` [Example 37] stands 11 to 100 nM; under `O[C@H](c1cccnc1)[C@H]1CC[C@@H](Cc2ccc3nc(-c4ccccc4-c4ncc[nH]4)[nH]c3c2)N1` [Example 41], 101 to 1000 nM.
On the same count and under the same terms, under `OC(c1cccnc1)C1CCC(Cc2ccc3nc(-c4ccccc4C(F)(F)F)[nH]c3c2)N1` (centres unmarked) [Example 39] stands 11 to 100 nM; under `O[C@H](c1ccccc1)[C@H]1CC[C@@H](Cc2ccc3nc(C4CCc5scnc54)[nH]c3c2)N1` (some centres unmarked) [Example 24], 11 to 100 nM.
